{"source": "paper doi:10.1101/2021.04.08.439011v1", "about": "(biorxiv, 2021)", "key": {"[1]": {"target": "BMPR1A (Homo sapiens, UniProt P36894)", "sequence (P36894 whole entry)": "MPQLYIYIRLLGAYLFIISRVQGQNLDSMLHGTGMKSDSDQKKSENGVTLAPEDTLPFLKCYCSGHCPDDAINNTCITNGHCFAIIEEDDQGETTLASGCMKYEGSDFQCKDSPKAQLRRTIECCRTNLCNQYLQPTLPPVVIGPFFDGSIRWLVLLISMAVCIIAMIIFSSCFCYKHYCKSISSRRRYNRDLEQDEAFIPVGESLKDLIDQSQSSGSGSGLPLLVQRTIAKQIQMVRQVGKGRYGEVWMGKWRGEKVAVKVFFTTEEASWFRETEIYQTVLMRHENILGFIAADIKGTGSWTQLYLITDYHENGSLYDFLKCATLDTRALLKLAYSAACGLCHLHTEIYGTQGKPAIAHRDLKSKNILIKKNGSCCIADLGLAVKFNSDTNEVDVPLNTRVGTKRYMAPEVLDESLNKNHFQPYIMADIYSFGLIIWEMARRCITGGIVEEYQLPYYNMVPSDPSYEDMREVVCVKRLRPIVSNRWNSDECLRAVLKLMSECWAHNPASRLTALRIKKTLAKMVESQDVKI", "details": "1 µM; binder"}, "[2]": {"target": "CAMK1 (Homo sapiens, UniProt Q14012)", "details": "1 µM; binder"}, "[3]": {"target": "CAMK2G (Homo sapiens, UniProt Q13555)", "sequence (Q13555 whole entry)": "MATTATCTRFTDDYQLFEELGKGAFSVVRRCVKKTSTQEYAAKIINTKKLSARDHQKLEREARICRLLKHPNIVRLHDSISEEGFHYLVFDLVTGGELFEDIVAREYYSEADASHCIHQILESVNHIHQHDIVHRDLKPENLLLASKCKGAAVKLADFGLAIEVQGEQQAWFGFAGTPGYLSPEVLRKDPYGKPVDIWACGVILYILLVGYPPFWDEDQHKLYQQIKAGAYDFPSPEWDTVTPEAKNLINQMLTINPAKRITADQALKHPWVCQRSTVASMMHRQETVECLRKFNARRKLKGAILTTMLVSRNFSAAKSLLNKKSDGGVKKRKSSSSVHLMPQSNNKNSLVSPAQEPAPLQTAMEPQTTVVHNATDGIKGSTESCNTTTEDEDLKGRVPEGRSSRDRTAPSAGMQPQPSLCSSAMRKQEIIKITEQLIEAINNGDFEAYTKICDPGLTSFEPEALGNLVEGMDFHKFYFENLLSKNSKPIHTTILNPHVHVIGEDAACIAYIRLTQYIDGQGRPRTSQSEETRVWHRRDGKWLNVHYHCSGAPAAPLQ", "details": "1 µM; binder"}, "[4]": {"target": "CDC2L5 (Homo sapiens, UniProt Q14004)", "details": "1 µM; binder"}, "[5]": {"target": "CDKL5 (Homo sapiens, UniProt O76039)", "details": "1 µM; binder"}, "[6]": {"target": "CSF1R-autoinhibited (Homo sapiens, UniProt P07333)", "details": "1 µM; binder"}, "[7]": {"target": "CSNK2A2 (Homo sapiens, UniProt P19784)", "sequence (P19784 whole entry)": "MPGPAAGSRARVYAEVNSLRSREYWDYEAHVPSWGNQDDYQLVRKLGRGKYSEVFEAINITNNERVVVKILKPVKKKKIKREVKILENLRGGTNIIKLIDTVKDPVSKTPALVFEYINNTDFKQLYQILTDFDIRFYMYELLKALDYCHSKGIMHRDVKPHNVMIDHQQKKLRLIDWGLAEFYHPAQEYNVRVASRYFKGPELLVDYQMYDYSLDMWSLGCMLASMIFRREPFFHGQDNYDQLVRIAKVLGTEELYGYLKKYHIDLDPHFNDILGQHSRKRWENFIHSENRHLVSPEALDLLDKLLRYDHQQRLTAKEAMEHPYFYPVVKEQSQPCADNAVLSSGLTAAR", "details": "1 µM; binder"}, "[8]": {"target": "DCAMKL2 (Homo sapiens, UniProt Q8N568)", "details": "1 µM; binder"}, "[9]": {"target": "EPHA4 (Homo sapiens, UniProt P54764)", "details": "1 µM; binder"}, "[10]": {"target": "FGFR4 (Homo sapiens, UniProt P22455)", "sequence (P22455 whole entry)": "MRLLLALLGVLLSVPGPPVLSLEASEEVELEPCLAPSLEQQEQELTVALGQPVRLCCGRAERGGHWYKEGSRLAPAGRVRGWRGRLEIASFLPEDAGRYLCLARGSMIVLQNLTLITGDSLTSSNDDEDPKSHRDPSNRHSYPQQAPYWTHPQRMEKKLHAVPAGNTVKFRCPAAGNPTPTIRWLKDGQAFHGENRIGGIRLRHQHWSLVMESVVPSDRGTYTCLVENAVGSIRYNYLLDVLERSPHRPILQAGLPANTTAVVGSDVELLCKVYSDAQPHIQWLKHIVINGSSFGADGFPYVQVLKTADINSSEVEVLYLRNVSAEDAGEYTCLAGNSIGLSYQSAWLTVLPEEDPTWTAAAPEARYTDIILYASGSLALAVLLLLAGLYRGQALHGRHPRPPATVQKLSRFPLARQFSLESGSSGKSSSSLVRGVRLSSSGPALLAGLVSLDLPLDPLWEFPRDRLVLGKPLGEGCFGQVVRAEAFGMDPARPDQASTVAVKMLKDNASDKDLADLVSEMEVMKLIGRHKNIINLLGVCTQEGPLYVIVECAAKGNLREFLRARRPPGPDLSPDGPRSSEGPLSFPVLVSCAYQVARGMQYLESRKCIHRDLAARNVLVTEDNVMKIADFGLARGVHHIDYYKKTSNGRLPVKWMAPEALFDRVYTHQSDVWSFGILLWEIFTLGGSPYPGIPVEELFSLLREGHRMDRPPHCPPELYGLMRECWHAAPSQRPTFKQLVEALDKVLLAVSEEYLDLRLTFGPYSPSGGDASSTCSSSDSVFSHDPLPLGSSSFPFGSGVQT", "details": "1 µM; binder"}, "[11]": {"target": "FGR (Homo sapiens, UniProt P09769)", "sequence (P09769 whole entry)": "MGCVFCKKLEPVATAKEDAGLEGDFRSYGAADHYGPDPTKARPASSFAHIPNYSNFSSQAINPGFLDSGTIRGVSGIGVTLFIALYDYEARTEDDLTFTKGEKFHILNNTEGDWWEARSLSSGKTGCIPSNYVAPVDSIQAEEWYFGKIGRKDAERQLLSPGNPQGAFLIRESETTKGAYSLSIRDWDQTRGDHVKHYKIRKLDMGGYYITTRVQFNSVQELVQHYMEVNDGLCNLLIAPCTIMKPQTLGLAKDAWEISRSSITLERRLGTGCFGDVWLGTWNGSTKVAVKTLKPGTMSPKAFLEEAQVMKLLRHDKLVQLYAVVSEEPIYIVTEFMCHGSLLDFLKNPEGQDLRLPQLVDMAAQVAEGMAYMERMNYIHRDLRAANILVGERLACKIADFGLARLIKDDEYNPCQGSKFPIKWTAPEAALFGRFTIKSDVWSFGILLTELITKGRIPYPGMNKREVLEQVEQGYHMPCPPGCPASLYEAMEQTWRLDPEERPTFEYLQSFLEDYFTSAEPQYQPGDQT", "details": "1 µM; binder"}, "[12]": {"target": "INSRR (Homo sapiens, UniProt P14616)", "details": "1 µM; binder"}, "[13]": {"target": "JAK3 (Homo sapiens, UniProt P52333)", "details": "JH1 domain catalytic; binder"}, "[14]": {"target": "JNK2 (Homo sapiens, UniProt P45984)", "details": "1 µM; binder"}, "[15]": {"target": "MAP4K2 (Homo sapiens, UniProt Q12851)", "details": "1 µM; binder"}, "[16]": {"target": "MINK (Homo sapiens, UniProt Q8N4C8)", "details": "1 µM; binder"}, "[17]": {"target": "MLK3 (Homo sapiens, UniProt Q16584)", "details": "1 µM; binder"}, "[18]": {"target": "MYLK4 (Homo sapiens, UniProt Q86YV6)", "details": "1 µM; binder"}, "[19]": {"target": "MYO3A (Homo sapiens, UniProt Q8NEV4)", "details": "1 µM; binder"}, "[20]": {"target": "NLK (Homo sapiens, UniProt Q9UBE8)", "details": "1 µM; binder"}, "[21]": {"target": "PIM1 (Homo sapiens, UniProt P11309)", "sequence (P11309 whole entry)": "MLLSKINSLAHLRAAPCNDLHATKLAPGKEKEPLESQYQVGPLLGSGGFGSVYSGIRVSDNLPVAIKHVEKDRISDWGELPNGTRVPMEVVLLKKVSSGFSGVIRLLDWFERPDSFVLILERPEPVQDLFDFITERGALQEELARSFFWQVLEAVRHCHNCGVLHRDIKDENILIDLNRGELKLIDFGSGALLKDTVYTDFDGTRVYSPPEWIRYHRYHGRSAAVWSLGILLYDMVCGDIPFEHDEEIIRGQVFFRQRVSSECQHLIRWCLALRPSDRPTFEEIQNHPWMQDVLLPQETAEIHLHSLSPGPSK", "details": "1 µM; binder"}, "[22]": {"target": "PIP5K1C (Homo sapiens, UniProt O60331)", "sequence (O60331 whole entry)": "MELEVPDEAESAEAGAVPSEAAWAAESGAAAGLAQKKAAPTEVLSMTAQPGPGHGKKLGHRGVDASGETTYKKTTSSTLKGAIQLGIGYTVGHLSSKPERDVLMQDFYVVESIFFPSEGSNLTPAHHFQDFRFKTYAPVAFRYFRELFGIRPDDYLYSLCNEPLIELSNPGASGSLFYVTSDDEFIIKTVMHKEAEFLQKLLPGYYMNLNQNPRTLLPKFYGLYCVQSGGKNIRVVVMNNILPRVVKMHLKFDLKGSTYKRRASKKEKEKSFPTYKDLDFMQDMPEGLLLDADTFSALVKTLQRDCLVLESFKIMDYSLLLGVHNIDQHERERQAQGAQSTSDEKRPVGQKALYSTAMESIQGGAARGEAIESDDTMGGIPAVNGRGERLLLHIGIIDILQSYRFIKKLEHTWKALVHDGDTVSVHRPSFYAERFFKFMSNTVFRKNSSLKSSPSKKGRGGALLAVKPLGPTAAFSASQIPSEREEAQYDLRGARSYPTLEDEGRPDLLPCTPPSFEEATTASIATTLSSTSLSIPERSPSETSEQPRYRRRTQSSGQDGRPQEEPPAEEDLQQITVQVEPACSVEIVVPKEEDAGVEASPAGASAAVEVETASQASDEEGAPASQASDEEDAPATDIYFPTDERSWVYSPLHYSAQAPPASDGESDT", "details": "1 µM; binder"}, "[23]": {"target": "RET(V804M) (Homo sapiens, UniProt P07949, V804M)", "details": "1 µM; binder"}, "[24]": {"target": "SRPK1 (Homo sapiens, UniProt Q96SB4)", "details": "1 µM; binder"}, "[25]": {"target": "STK39 (Homo sapiens, UniProt Q9UEW8)", "details": "1 µM; binder"}, "[26]": {"target": "TIE1 (Homo sapiens, UniProt P35590)", "details": "1 µM; binder"}, "[27]": {"target": "TYK2 (Homo sapiens, UniProt P29597)", "sequence (P29597 whole entry)": "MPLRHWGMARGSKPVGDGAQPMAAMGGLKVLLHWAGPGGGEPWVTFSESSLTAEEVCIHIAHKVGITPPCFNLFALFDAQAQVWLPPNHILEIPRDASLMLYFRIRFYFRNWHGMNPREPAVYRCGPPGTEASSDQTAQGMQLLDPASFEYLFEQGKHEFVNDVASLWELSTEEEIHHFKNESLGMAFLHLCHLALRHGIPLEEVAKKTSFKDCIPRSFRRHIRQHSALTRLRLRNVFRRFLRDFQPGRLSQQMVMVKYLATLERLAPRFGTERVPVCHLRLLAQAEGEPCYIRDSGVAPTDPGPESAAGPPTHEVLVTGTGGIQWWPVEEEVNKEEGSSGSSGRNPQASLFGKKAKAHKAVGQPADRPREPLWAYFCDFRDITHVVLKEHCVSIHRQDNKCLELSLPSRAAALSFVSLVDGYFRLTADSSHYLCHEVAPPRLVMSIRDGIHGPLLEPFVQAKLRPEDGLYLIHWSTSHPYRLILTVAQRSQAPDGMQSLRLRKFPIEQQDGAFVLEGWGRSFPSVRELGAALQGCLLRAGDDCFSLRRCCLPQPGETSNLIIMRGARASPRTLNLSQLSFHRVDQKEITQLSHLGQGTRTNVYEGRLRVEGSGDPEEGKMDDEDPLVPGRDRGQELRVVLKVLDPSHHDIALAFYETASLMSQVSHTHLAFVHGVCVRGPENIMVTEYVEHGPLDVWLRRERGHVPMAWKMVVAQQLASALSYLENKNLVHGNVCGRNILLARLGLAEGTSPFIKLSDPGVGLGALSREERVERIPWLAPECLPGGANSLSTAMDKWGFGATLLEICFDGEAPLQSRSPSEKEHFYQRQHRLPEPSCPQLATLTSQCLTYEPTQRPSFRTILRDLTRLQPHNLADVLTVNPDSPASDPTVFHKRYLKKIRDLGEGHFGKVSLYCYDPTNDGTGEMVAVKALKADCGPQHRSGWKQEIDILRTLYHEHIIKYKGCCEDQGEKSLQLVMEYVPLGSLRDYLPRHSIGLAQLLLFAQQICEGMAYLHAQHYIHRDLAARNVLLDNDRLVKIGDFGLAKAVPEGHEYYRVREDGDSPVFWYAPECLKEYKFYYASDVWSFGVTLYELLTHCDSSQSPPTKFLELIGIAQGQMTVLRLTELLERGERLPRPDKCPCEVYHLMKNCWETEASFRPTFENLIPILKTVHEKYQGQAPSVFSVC", "details": "binder"}, "[28]": {"target": "WEE1 (Homo sapiens, UniProt P30291)", "details": "1 µM; binder"}, "[29]": {"target": "WNK4 (Homo sapiens, UniProt Q96J92)", "details": "1 µM; binder"}, "[30]": {"target": "YSK1 (Homo sapiens, UniProt O00506)", "details": "1 µM; binder"}}, "note": "Like-named read-outs stand apart in the source and are kept apart here."}
{"compound": "CNc1ncc2cc(-c3ccc(-c4cccc(C)n4)cc3Cl)c(=O)n(C[C@H]3OC[C@H](N)CO3)c2n1", "note": "[compound 6, G-5555]", "values": [{"measurement": "Percent Control", "setting": "[1]", "result": 85, "unit": "%"}, {"measurement": "Percent Control", "setting": "[2]", "result": 59, "unit": "%"}, {"measurement": "Percent Control", "setting": "[3]", "result": 100, "unit": "%"}, {"measurement": "Percent Control", "setting": "[4]", "result": 97, "unit": "%"}, {"measurement": "Percent Control", "setting": "[5]", "result": 97, "unit": "%"}, {"measurement": "Percent Control", "setting": "[6]", "result": 84, "unit": "%"}, {"measurement": "Percent Control", "setting": "[7]", "result": 95, "unit": "%"}, {"measurement": "Percent Control", "setting": "[8]", "result": 51, "unit": "%"}, {"measurement": "Percent Control", "setting": "[9]", "result": 100, "unit": "%"}, {"measurement": "Percent Control", "setting": "[10]", "result": 100, "unit": "%"}, {"measurement": "Percent Control", "setting": "[11]", "result": 100, "unit": "%"}, {"measurement": "Percent Control", "setting": "[12]", "result": 100, "unit": "%"}, {"measurement": "Percent Control", "setting": "[13]", "result": 90, "unit": "%"}, {"measurement": "Percent Control", "setting": "[14]", "result": 75, "unit": "%"}, {"measurement": "Percent Control", "setting": "[15]", "result": 32, "unit": "%"}, {"measurement": "Percent Control", "setting": "[16]", "result": 26, "unit": "%"}, {"measurement": "Percent Control", "setting": "[17]", "result": 100, "unit": "%"}, {"measurement": "Percent Control", "setting": "[18]", "result": 100, "unit": "%"}, {"measurement": "Percent Control", "setting": "[19]", "result": 96, "unit": "%"}, {"measurement": "Percent Control", "setting": "[20]", "result": 17, "unit": "%"}, {"measurement": "Percent Control", "setting": "[21]", "result": 100, "unit": "%"}, {"measurement": "Percent Control", "setting": "[22]", "result": 100, "unit": "%"}, {"measurement": "Percent Control", "setting": "[23]", "result": 100, "unit": "%"}, {"measurement": "Percent Control", "setting": "[24]", "result": 98, "unit": "%"}, {"measurement": "Percent Control", "setting": "[25]", "result": 100, "unit": "%"}, {"measurement": "Percent Control", "setting": "[26]", "result": 94, "unit": "%"}, {"measurement": "Percent Control", "setting": "[27]; JH1 domain catalytic", "result": 74, "unit": "%"}, {"measurement": "Percent Control", "setting": "[27]; JH2 domain pseudokinase, 1 µM", "result": 98, "unit": "%"}, {"measurement": "Percent Control", "setting": "[28]", "result": 100, "unit": "%"}, {"measurement": "Percent Control", "setting": "[29]", "result": 18, "unit": "%"}, {"measurement": "Percent Control", "setting": "[30]", "result": 36, "unit": "%"}]}
